In patent US11925650B2, “Antibacterial chemical compound, its manufacturing method and its use thereof” (National Taiwan University, priority 2022, dated 2024):
Where two headings read alike, the source gives them in different places.

Tests used:
[1] = tested on: ROS levels in infected macrophages; assay: ROS production in Salmonella-infected RAW264.7 cells (H2DCFDA); type: cell-based; conditions: 1 hour; SW14 at concentrations up to 8 μM
Description: FIG. 10. […] The viabilities of intracellular Salmonella in RAW264.7 cells treated with SW14 with/without the ROS scavengers N-acetyl-cysteine (NAC; 10 mM) or glutathione (GSH; 10 mM) are assessed using HCA. […] Salmonella-infected RAW264.7 cells are loaded with 25 μM H2DCFDA for 45 min followed by treatment with SW14 or PMA at various concentrations. […] S. Typhimurium ATCC 14028 is treated with H2O2 alone or in combination with SW14 (0.5 μM) in (C) LB or (D) LPM for 1 hour followed by evaluation by the CFU assay to determine bacterial viability.

[2] = tested on: Salmonella Typhimurium ATCC 14028; assay: MIC of antibiotics, strain ATCC 14028; type: cell-based; conditions: for MIC: Salmonella enterica
[3] = tested on: Salmonella Typhimurium 0911R; assay: MIC of antibiotics, multidrug-resistant isolate 0911R; type: cell-based; conditions: Table 5; for MIC: Salmonella enterica, TYPHIMURIUM
[4] = tested on: Salmonella Typhimurium NL08.10; assay: MIC of antibiotics, multidrug-resistant isolate NL08.10; type: cell-based; conditions: Table 5; for MIC: Salmonella enterica, TYPHIMURIUM
[5] = tested on: Salmonella Typhimurium SB10; assay: MIC of antibiotics, ciprofloxacin-resistant strain SB10; type: cell-based; conditions: Table 6; for MIC: Salmonella enterica, TYPHIMURIUM
[6] = tested on: intracellular Salmonella in RAW264.7 cells; assay: Intracellular Salmonella with cefixime or ciprofloxacin alone or combined with SW14 (HCA); type: cell-based; conditions: 24 hours, alone or combined with 0.5 μM SW14
Description: FIG. 4. Salmonella-infected RAW264.7 cells treated with (A) 0.25, 0.5, 1, 2, and 4 mg/L of cefixime (CFM) and (B) 0.03, 0.06, 0.125, 0.25, and 0.5 mg/L of ciprofloxacin (CIP) alone or in combination with 0.5 μM SW14. After 24 hours, the relative numbers of intracellular bacteria were determined using HCA and the results are expressed as relative fluorescence units (RFU).

[7] = tested on: Salmonella Typhimurium SA10; assay: MIC of antibiotics, ciprofloxacin-resistant strain SA10; type: cell-based; conditions: Table 6; for MIC: Salmonella enterica, TYPHIMURIUM
[8] = tested on: intracellular Salmonella in RAW264.7 cells; assay: Intracellular Salmonella viability with autophagy inhibitor 3-MA (HCA); type: cell-based, S. typhimurium; conditions: 10 mM 3-MA
Description: FIG. 7. Infected RAW264.7 cells treated with 10 mM of 3-MA for 1 h followed by 0.5 μM of SW14 or mock (DMSO) treatment for 24 hours.
Autophagy was originally characterized as a cellular response to stress, but has been considered to be a defense mechanism to combat host cell infection by intracellular Salmonella. Therefore, to evaluated the role of autophagy in SW14's anti-intracellular Salmonella activity, infected cells are treated with 3-MA, an autophagy inhibitor to block cellular autophagy then followed by treatment with SW14 for 24 h. […] Compared to mock-treated cells, the viability of intracellular Salmonella in cells treated with SW14 or the combination of 3-MA and SW14 were 45% and 36.8%, respectively.

[9] = Table 5, read-out: MIC ATCC 14028
[10] = CAMH medium, read-out: MIC S. Typhimurium ATCC 14028, CAMH
[11] = LB medium, read-out: MIC S. Typhimurium ATCC 14028, LB
[12] = acidic LPM medium, read-out: MIC S. Typhimurium ATCC 14028, LPM
[13] = Table 6, read-out: MIC ATCC 14028

**Q.** Which “ROS levels (H2DCFDA signal) in infected macrophages” value [1] does the source give for `CCCCCCCCCCCCCC(=O)O[C@@H]1[C@@H](C)[C@@]2(O)[C@@H](C=C(CO)C[C@]3(O)C(=O)C(C)=C[C@@H]23)[C@@H]2C(C)(C)[C@]12OC(C)=O` [PMA, reference compound] here?
**A.** Its value is “significantly elevated ROS levels”.

**Q.** What does the source list for `O=C(N[C@H](CO)[C@H](O)c1ccc([N+](=O)[O-])cc1)C(Cl)Cl` [Chloramphenicol]?
**A.** MIC [2, 9]: 16 µg/mL; MIC [3]: 32 µg/mL; MIC [4]: 32 µg/mL

**Q.** Which MIC [2, 9] does the source give for `[H]/N=C(/N)N[C@H]1[C@H](O)[C@@H](O)[C@H](O[C@@H]2O[C@@H](C)[C@](O)(C=O)[C@H]2O[C@@H]2O[C@@H](CO)[C@H](O)[C@@H](O)[C@@H]2NC)[C@@H](N/C(N)=N\[H])[C@@H]1O` [Streptomycin] here?
**A.** The MIC was 32 µg/mL.

**Q.** What about the MIC [3] of the same compound?
**A.** The MIC was > 64 µg/mL.

**Q.** What about the MIC [4] of the same compound?
**A.** Its MIC is > 64 µg/mL.

**Q.** Which results are given for `CO[C@H]1/C=C/O[C@@]2(C)Oc3c(C)c(O)c4c(O)c(c(/C=N/N5CCN(C)CC5)c(O)c4c3C2=O)NC(=O)/C(C)=C\C=C\[C@H](C)[C@H](O)[C@@H](C)[C@@H](O)[C@@H](C)[C@H](OC(C)=O)[C@@H]1C` [Rifampin]?
**A.** MIC [2, 10]: 16 µg/mL; MIC [2, 11]: 16 µg/mL; MIC [2, 12]: 4 µg/mL

**Q.** Which MIC [2, 9] does the source give for `CN(C)[C@@H]1C(O)=C(C(N)=O)C(=O)[C@@]2(O)C(O)=C3C(=O)c4c(O)cccc4[C@@](C)(O)[C@H]3C[C@@H]12` [Tetracycline] here?
**A.** The MIC was 8 µg/mL.

**Q.** What about the MIC [3] of the same compound?
**A.** Its MIC is > 64 µg/mL.

**Q.** And the MIC [4]?
**A.** Its MIC is > 64 µg/mL.

**Q.** Which results are given for `O=C(O)c1cn(C2CC2)c2cc(N3CCNCC3)c(F)cc2c1=O` [Ciprofloxacin, ciprofloxacin]?
**A.** MIC [5]: 4 µg/mL; survival of intracellular Salmonella in macrophages, antibiotic treatment [6]: inhibited the survival of intracellular Salmonella in macrophages in a dose-dependent manner; MIC [2, 13]: < 0.125 µg/mL; MIC [7]: 4 µg/mL

**Q.** What does the source list for `CN[C@H](CC(C)C)C(=O)N[C@H]1C(=O)N[C@@H](CC(N)=O)C(=O)N[C@H]2C(=O)N[C@H]3C(=O)N[C@H](C(=O)N[C@H](C(=O)O)c4cc(O)cc(O)c4-c4cc3ccc4O)[C@H](O)c3ccc(c(Cl)c3)Oc3cc2cc(c3O[C@@H]2O[C@H](CO)[C@@H](O)[C@H](O)[C@H]2O[C@H]2C[C@](C)(N)[C@H](O)[C@H](C)O2)Oc2ccc(cc2Cl)[C@H]1O` [Vancomycin]?
**A.** MIC [2, 10]: 2050 µg/mL; MIC [2, 11]: 512 µg/mL; MIC [2, 12]: 128 µg/mL

**Q.** Which “relative number of intracellular bacteria in 3-MA-treated cells” value [8] does the source give for `Cn1cnc(=N)c2[nH]cnc21` [3-MA, reference compound] here?
**A.** The value was “increased significantly”.

**Q.** Which results are given for Gentamycin?
**A.** MIC SB10 [5]: 1 µg/mL; MIC ATCC 14028 ([2]; Table 5): 2 µg/mL; MIC ATCC 14028 ([2]; Table 6): 2 µg/mL; MIC SA10 [7]: 0.5 µg/mL; MIC 0911R [3]: 2 µg/mL; MIC NL08.10 [4]: 2 µg/mL

**Q.** Which results are given for `CC1(C)S[C@@H]2[C@H](NC(=O)[C@H](N)c3ccccc3)C(=O)N2[C@H]1C(=O)O` [Ampicillin]?
**A.** MIC [2, 10]: 4 µg/mL; MIC [2, 11]: 4 µg/mL; MIC [2, 9]: 16 µg/mL; MIC [2, 12]: 1 µg/mL; MIC [3]: > 64 µg/mL; MIC [4]: > 64 µg/mL

**Q.** Which results are given for `CC1COc2c(N3CCN(C)CC3)c(F)cc3c(=O)c(C(=O)O)cn1c23` (stereo not drawn) [Ofloxacin]?
**A.** MIC [5]: 8 µg/mL; MIC [2, 13]: < 0.125 µg/mL; MIC [7]: 8 µg/mL
